Activity calls are given as the source filed them. The rule behind the calls is not given here.
Test system: CCRIS mutagenicity, Ames/micronucleus/aberration tests
Assay: CCRIS mutagenicity studies
[1] = Test System: AMES SALMONELLA TYPHIMURIUM, Strain/Indicator: TA98, Metabolic Activation: HAMSTER, LIVER, S-9, AROCLOR 1254 (10%), Method: PREINCUBATION
[2] = Test System: AMES SALMONELLA TYPHIMURIUM, Strain/Indicator: TA98, Metabolic Activation: NONE, Method: PREINCUBATION
[3] = Test System: AMES SALMONELLA TYPHIMURIUM, Strain/Indicator: TA98, Metabolic Activation: RAT, LIVER, S-9, AROCLOR 1254 (10%), Method: PREINCUBATION
[4] = Test System: AMES SALMONELLA TYPHIMURIUM, Strain/Indicator: TA100, Metabolic Activation: HAMSTER, LIVER, S-9, AROCLOR 1254 (10%), Method: PREINCUBATION
[5] = Test System: AMES SALMONELLA TYPHIMURIUM, Strain/Indicator: TA100, Metabolic Activation: NONE, Method: PREINCUBATION
[6] = Test System: AMES SALMONELLA TYPHIMURIUM, Strain/Indicator: TA100, Metabolic Activation: RAT, LIVER, S-9, AROCLOR 1254 (10%), Method: PREINCUBATION
[7] = Test System: AMES SALMONELLA TYPHIMURIUM, Strain/Indicator: TA1535, Metabolic Activation: HAMSTER, LIVER, S-9, AROCLOR 1254 (10%), Method: PREINCUBATION
[8] = Test System: AMES SALMONELLA TYPHIMURIUM, Strain/Indicator: TA1535, Metabolic Activation: NONE, Method: PREINCUBATION
[9] = Test System: AMES SALMONELLA TYPHIMURIUM, Strain/Indicator: TA1535, Metabolic Activation: RAT, LIVER, S-9, AROCLOR 1254 (10%), Method: PREINCUBATION
[10] = Test System: AMES SALMONELLA TYPHIMURIUM, Strain/Indicator: TA1537, Metabolic Activation: HAMSTER, LIVER, S-9, AROCLOR 1254 (10%), Method: PREINCUBATION
[11] = Test System: AMES SALMONELLA TYPHIMURIUM, Strain/Indicator: TA1537, Metabolic Activation: NONE, Method: PREINCUBATION
[12] = Test System: AMES SALMONELLA TYPHIMURIUM, Strain/Indicator: TA1537, Metabolic Activation: RAT, LIVER, S-9, AROCLOR 1254 (10%), Method: PREINCUBATION
[13] = Test System: AMES SALMONELLA TYPHIMURIUM, Strain/Indicator: TA100, Metabolic Activation: RAT, LIVER, S-9, AROCLOR 1254, Method: PREINCUBATION

## COc1ccc([N+](=O)[O-])cc1N=Nc1c(O)c(C(=O)Nc2cccc([N+](=O)[O-])c2)cc2ccccc12
[1]
  mutagenic call: active; positive
[2]
  mutagenic call: active; positive
[3]
  mutagenic call: active; positive
[4]
  mutagenic call: active; positive
[5]
  mutagenic call: active; positive
[6]
  mutagenic call: active; positive
[7]
  mutagenic call: inactive; negative
[8]
  mutagenic call: inactive; negative
[9]
  mutagenic call: inactive; negative
[10]
  mutagenic call: active; positive
[11]
  mutagenic call: active; positive
[12]
  mutagenic call: active; positive

## COC[C@@H]1C=C2c3cccc4c3c(cn4C)C[C@H]2N(C)C1
Test System: AMES SALMONELLA TYPHIMURIUM, Strain/Indicator: TA100, Metabolic Activation: RAT, LIVER, S-9, AROCLOR 1254, Method: STANDARD PLATE
  mutagenic call: active; positive

## O=C1CCc2c1cc(C(F)(F)F)c1c2ccc2ccccc21
Test System: AMES SALMONELLA TYPHIMURIUM, Strain/Indicator: TA100, Metabolic Activation: RAT, LIVER, S-9, AROCLOR 1254
  mutagenic call: active; positive

## O=C1CCO1
Test System: AMES SALMONELLA TYPHIMURIUM, Strain/Indicator: TA100, Metabolic Activation: NONE, Method: STANDARD PLATE
  mutagenic call: active; positive
Test System: AMES SALMONELLA TYPHIMURIUM, Strain/Indicator: TA100, Metabolic Activation: RAT, LIVER, S-9, KC500 OR PHENOBARBITAL, Method: LIQUID SUSPENSION
  mutagenic call: active; positive
Test System: AMES SALMONELLA TYPHIMURIUM, Strain/Indicator: TA1535, Metabolic Activation: NONE, Method: STANDARD PLATE
  mutagenic call: active; positive
Test System: CHINESE HAMSTER V-79, Strain/Indicator: V-79/6-THIOGUANINE, Metabolic Activation: NONE, Method: FLASK ASSAY
  mutagenic call: active; positive
Test System: MOUSE LYMPHOMA, Strain/Indicator: L5178Y (TK+/TK-), Metabolic Activation: NONE, Method: SUSPENSION/PLATE
  mutagenic call: active; positive
Test System: MOUSE LYMPHOMA, Strain/Indicator: L5178Y (TK+/TK-), Metabolic Activation: RAT, LIVER, S-9, AROCLOR 1254, Method: SUSPENSION/PLATE
  mutagenic call: active; positive
Test System: UDS HUMAN FIBROBLASTS, Strain/Indicator: THY INCORP (NON-S-PHASE), Metabolic Activation: NONE, Method: LIQUID SCINTILLATION COUNTING
  mutagenic call: active; positive
Test System: UDS HUMAN LYMPHOCYTES, Strain/Indicator: THY INCORP (NON-S-PHASE), Metabolic Activation: NONE, Method: LIQUID SCINTILLATION COUNTING
  mutagenic call: active; positive
Test System: UDS RODENT PRIMARY CELLS, Strain/Indicator: THY INCORP (NON-S-PHASE), Metabolic Activation: NONE, Method: AUTORADIOGRAPHY
  mutagenic call: active; positive

## NC(CNCCCC[C@H](N)C(=O)O)C(=O)O (stereo not given in full)
Test System: AMES SALMONELLA TYPHIMURIUM, Strain/Indicator: TA97, Metabolic Activation: NONE, Method: PREINCUBATION
  mutagenic call: inactive; negative
Test System: AMES SALMONELLA TYPHIMURIUM, Strain/Indicator: TA97, Metabolic Activation: RAT, KIDNEY, S-9, AROCLOR 1254, Method: PREINCUBATION
  mutagenic call: inactive; negative
Test System: AMES SALMONELLA TYPHIMURIUM, Strain/Indicator: TA97, Metabolic Activation: RAT, LIVER, S-9, AROCLOR 1254, Method: PREINCUBATION
  mutagenic call: inactive; negative
[2]
  mutagenic call: inactive; negative
Test System: AMES SALMONELLA TYPHIMURIUM, Strain/Indicator: TA98, Metabolic Activation: RAT, KIDNEY, S-9, AROCLOR 1254, Method: PREINCUBATION
  mutagenic call: inactive; negative
Test System: AMES SALMONELLA TYPHIMURIUM, Strain/Indicator: TA98, Metabolic Activation: RAT, LIVER, S-9, AROCLOR 1254, Method: PREINCUBATION
  mutagenic call: inactive; negative
[5]
  mutagenic call: inactive; negative
Test System: AMES SALMONELLA TYPHIMURIUM, Strain/Indicator: TA100, Metabolic Activation: RAT, KIDNEY, S-9, AROCLOR 1254, Method: PREINCUBATION
  mutagenic call: inactive; negative
[13]
  mutagenic call: inactive; negative
Test System: AMES SALMONELLA TYPHIMURIUM, Strain/Indicator: TA102, Metabolic Activation: NONE, Method: PREINCUBATION
  mutagenic call: inactive; negative
Test System: AMES SALMONELLA TYPHIMURIUM, Strain/Indicator: TA102, Metabolic Activation: RAT, KIDNEY, S-9, AROCLOR 1254, Method: PREINCUBATION
  mutagenic call: inactive; negative
Test System: AMES SALMONELLA TYPHIMURIUM, Strain/Indicator: TA102, Metabolic Activation: RAT, LIVER, S-9, AROCLOR 1254, Method: PREINCUBATION
  mutagenic call: inactive; negative

## N#Cc1ccc(/C=C/c2ccc([N+](=O)[O-])cc2)cc1
Test System: AMES SALMONELLA TYPHIMURIUM, Strain/Indicator: TA98 (NR), Metabolic Activation: NONE, Method: STANDARD PLATE
  mutagenic call: active; positive
Test System: AMES SALMONELLA TYPHIMURIUM, Strain/Indicator: TA98 (NR), Metabolic Activation: S-9, Method: STANDARD PLATE
  mutagenic call: active; positive
Test System: AMES SALMONELLA TYPHIMURIUM, Strain/Indicator: TA98, Metabolic Activation: RAT, LIVER, S-9, AROCLOR, Method: STANDARD PLATE
  mutagenic call: active; positive
Test System: AMES SALMONELLA TYPHIMURIUM, Strain/Indicator: TA98, Metabolic Activation: S-9, Method: STANDARD PLATE
  mutagenic call: active; positive
Test System: AMES SALMONELLA TYPHIMURIUM, Strain/Indicator: TA100 (NR), Metabolic Activation: NONE, Method: STANDARD PLATE
  mutagenic call: inactive; negative
Test System: AMES SALMONELLA TYPHIMURIUM, Strain/Indicator: TA100(NR), Metabolic Activation: S-9, Method: STANDARD PLATE
  mutagenic call: inactive; negative
Test System: AMES SALMONELLA TYPHIMURIUM, Strain/Indicator: TA100, Metabolic Activation: RAT, LIVER, S-9, AROCLOR, Method: STANDARD PLATE
  mutagenic call: active; positive
Test System: AMES SALMONELLA TYPHIMURIUM, Strain/Indicator: TA100, Metabolic Activation: S-9, Method: STANDARD PLATE
  mutagenic call: active; positive

## O=C(OCc1ccccc1[N+](=O)[O-])c1ccccc1
[2]
  mutagenic call: inactive; negative
[5]
  mutagenic call: inactive; negative
[13]
  mutagenic call: inactive; negative

## C=CC(=C)C
End Point: IN VIVO CHROMOSOMAL ABERRATIONS, Test System: BONE MARROW CELLS, Species: MOUSE, Strain/Sex: B6C3F1/MALE, Route: INHALATION
  mutagenic call: inactive; negative
End Point: IN VIVO MICRONUCLEUS, Test System: PERIPHERAL BLOOD LYMPHOCYTES, Species: MOUSE, Strain/Sex: B6C3F1/MALE, Route: INHALATION
  mutagenic call: active; positive
[1]
  mutagenic call: inactive; negative
[2]
  mutagenic call: inactive; negative
[3]
  mutagenic call: inactive; negative
Test System: AMES SALMONELLA TYPHIMURIUM, Strain/Indicator: TA98, Metabolic Activation: S-9, Method: PREINCUBATION
  mutagenic call: inactive; negative
[4]
  mutagenic call: inactive; negative
[5]
  mutagenic call: inactive; negative
[6]
  mutagenic call: inactive; negative
Test System: AMES SALMONELLA TYPHIMURIUM, Strain/Indicator: TA100, Metabolic Activation: S-9, Method: PREINCUBATION
  mutagenic call: inactive; negative
[7]
  mutagenic call: inactive; negative
[8]
  mutagenic call: inactive; negative
[9]
  mutagenic call: inactive; negative
Test System: AMES SALMONELLA TYPHIMURIUM, Strain/Indicator: TA1535, Metabolic Activation: S-9, Method: PREINCUBATION
  mutagenic call: inactive; negative
[10]
  mutagenic call: inactive; negative
[11]
  mutagenic call: inactive; negative
[12]
  mutagenic call: inactive; negative
Test System: E.COLI, Strain/Indicator: WP2UVRA/PKM101, Metabolic Activation: NONE, Method: PREINCUBATION
  mutagenic call: inactive; negative
Test System: E.COLI, Strain/Indicator: WP2UVRA/PKM101, Metabolic Activation: S-9, Method: PREINCUBATION
  mutagenic call: inactive; negative

Source: PubChem BioAssay AID1259407 (Chemical Carcinogenesis Research Information System (CCRIS), 2018)
